From ChEMBL document CHEMBL1201862, “PubChem BioAssay data set” (2004)
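Compound exposure: 48 hours, 5 concentrations, 96-well plates. GI50 marks 50% less growth.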 The source made the active and inactive calls. No stated cut-off is given here; in the data, active = GI50 up to about 1.1 µM and inactive = higher.

Legend:
Experiment in all cases: NCI tumour cell line growth inhibition, 48 h
786-0 = system: 786-0
A498 = system: A498
A549 = system: A549
ACHN = system: ACHN
BT-549 = system: BT-549
CAKI-1 = system: CAKI-1
CCRF-CEM = system: CCRF-CEM
COLO 205 = system: COLO 205
DU-145 = system: DU-145
EKVX = system: EKVX
HCC 2998 = system: HCC 2998
HCT-116 = system: HCT-116
HCT-15 = system: HCT-15
HL-60 = system: HL-60
HOP-62 = system: HOP-62
HT-29 = system: HT-29
Hs-578T = system: Hs-578T
IGROV-1 = system: IGROV-1
K562 = system: K562
KM12 = system: KM12
LOX IMVI = system: LOX IMVI
M14 = system: M14
MCF7 = system: MCF7
MDA-MB-231 = system: MDA-MB-231
MDA-MB-435 = system: MDA-MB-435
MDA-N = system: MDA-N
MOLT-4 = system: MOLT-4
Malme-3M = system: Malme-3M
NCI-H226 = system: NCI-H226
NCI-H23 = system: NCI-H23
NCI-H460 = system: NCI-H460
NCI-H522 = system: NCI-H522
NCI/ADR-RES = system: NCI/ADR-RES
OVCAR-3 = system: OVCAR-3
OVCAR-4 = system: OVCAR-4
OVCAR-5 = system: OVCAR-5
OVCAR-8 = system: OVCAR-8
PC-3 = system: PC-3
RPMI-8226 = system: RPMI-8226
RXF 393 = system: RXF 393
SF-268 = system: SF-268
SF-295 = system: SF-295
SF-539 = system: SF-539
SK-MEL-28 = system: SK-MEL-28
SK-MEL-2 = system: SK-MEL-2
SK-MEL-5 = system: SK-MEL-5
SK-OV-3 = system: SK-OV-3
SN12C = system: SN12C
SNB-19 = system: SNB-19
SNB-75 = system: SNB-75
SR = system: SR
SW-620 = system: SW-620
T47D = system: T47D
TK-10 = system: TK-10
U-251 = system: U-251
UACC-257 = system: UACC-257
UACC-62 = system: UACC-62
UO-31 = system: UO-31

## CCN(CC)C1Oc2cc3c(cc2C(c2cccc(OC)c2O)C1C)OCO3 (stereo not drawn)
786-0
  GI50: 9.79 µM (inactive)
A498
  GI50: 2.36 µM (inactive)
A549
  GI50: 5.02 µM (inactive)
ACHN
  GI50: 6.25 µM (inactive)
BT-549
  GI50: 7.18 µM (inactive)
CAKI-1
  GI50: 5.6 µM (inactive)
CCRF-CEM
  GI50: 3.94 µM (inactive)
COLO 205
  GI50: 3.03 µM (inactive)
DU-145
  GI50: 5.35 µM (inactive)
EKVX
  GI50: 10.6 µM (inactive)
HCC 2998
  GI50: 12.4 µM (inactive)
HCT-116
  GI50: 4.28 µM (inactive)
HCT-15
  GI50: 4.79 µM
HL-60
  GI50: 2.99 µM (inactive)
HOP-62
  GI50: 5.28 µM (inactive)
HT-29
  GI50: 4.16 µM (inactive)
Hs-578T
  GI50: 2.51 µM (inactive)
IGROV-1
  GI50: 8.04 µM (inactive)
K562
  GI50: 3.75 µM (inactive)
KM12
  GI50: 4.1 µM (inactive)
LOX IMVI
  GI50: 4.31 µM (inactive)
M14
  GI50: 2.98 µM (inactive)
MCF7
  GI50: 9.55 µM (inactive)
MDA-MB-231
  GI50: 10.5 µM (inactive)
MDA-MB-435
  GI50: 1.74 µM (inactive)
MDA-N
  GI50: 1.7 µM (inactive)
MOLT-4
  GI50: 3.68 µM (inactive)
Malme-3M
  GI50: 3.94 µM (inactive)
NCI-H226
  GI50: 3.44 µM (inactive)
NCI-H23
  GI50: 5.79 µM (inactive)
NCI-H460
  GI50: 4.24 µM (inactive)
NCI-H522
  GI50: 2.41 µM (inactive)
NCI/ADR-RES
  GI50: 4.62 µM (inactive)
OVCAR-3
  GI50: 1.94 µM (inactive)
OVCAR-4
  GI50: 7.14 µM (inactive)
OVCAR-5
  GI50: 13.8 µM (inactive)
OVCAR-8
  GI50: 13.7 µM (inactive)
PC-3
  GI50: 3.63 µM (inactive)
RPMI-8226
  GI50: 3.24 µM (inactive)
RXF 393
  GI50: 4.5 µM (inactive)
SF-268
  GI50: 6.62 µM (inactive)
SF-295
  GI50: 3.08 µM (inactive)
SF-539
  GI50: 2.54 µM (inactive)
SK-MEL-28
  GI50: 5.96 µM (inactive)
SK-MEL-2
  GI50: 4.52 µM (inactive)
SK-MEL-5
  GI50: 2.97 µM (inactive)
SK-OV-3
  GI50: 4.99 µM (inactive)
SN12C
  GI50: 4.6 µM (inactive)
SNB-19
  GI50: 3.76 µM (inactive)
SNB-75
  GI50: 2.81 µM (inactive)
SR
  GI50: 4.75 µM (inactive)
SW-620
  GI50: 4.33 µM (inactive)
T47D
  GI50: 14.5 µM (inactive)
TK-10
  GI50: 16.4 µM (inactive)
U-251
  GI50: 3.69 µM (inactive)
UACC-257
  GI50: 7.6 µM (inactive)
UACC-62
  GI50: 5.24 µM (inactive)
UO-31
  GI50: 9.38 µM (inactive)

## CN1CCN(CCCN)CC1
786-0
  GI50: > 100 µM (inactive)
A498
  GI50: > 100 µM (inactive)
A549
  GI50: > 100 µM (inactive)
ACHN
  GI50: > 100 µM (inactive)
BT-549
  GI50: > 100 µM (inactive)
CAKI-1
  GI50: > 100 µM (inactive)
CCRF-CEM
  GI50: > 100 µM (inactive)
COLO 205
  GI50: > 100 µM (inactive)
DU-145
  GI50: > 100 µM (inactive)
EKVX
  GI50: > 100 µM (inactive)
HCT-116
  GI50: > 100 µM (inactive)
HCT-15
  GI50: > 100 µM
HL-60
  GI50: > 100 µM (inactive)
HOP-62
  GI50: > 100 µM (inactive)
HT-29
  GI50: > 100 µM (inactive)
Hs-578T
  GI50: > 100 µM (inactive)
IGROV-1
  GI50: > 100 µM (inactive)
K562
  GI50: > 100 µM (inactive)
KM12
  GI50: > 100 µM (inactive)
LOX IMVI
  GI50: > 100 µM (inactive)
M14
  GI50: > 100 µM (inactive)
MCF7
  GI50: > 100 µM (inactive)
MDA-MB-231
  GI50: > 100 µM (inactive)
MDA-MB-435
  GI50: > 100 µM (inactive)
MDA-N
  GI50: > 100 µM (inactive)
MOLT-4
  GI50: > 100 µM (inactive)
Malme-3M
  GI50: > 100 µM (inactive)
NCI-H226
  GI50: > 100 µM (inactive)
NCI-H23
  GI50: > 100 µM (inactive)
NCI-H522
  GI50: > 100 µM (inactive)
NCI/ADR-RES
  GI50: > 100 µM (inactive)
OVCAR-3
  GI50: > 100 µM (inactive)
OVCAR-4
  GI50: > 100 µM (inactive)
OVCAR-5
  GI50: > 100 µM (inactive)
OVCAR-8
  GI50: > 100 µM (inactive)
PC-3
  GI50: > 100 µM (inactive)
RPMI-8226
  GI50: > 100 µM (inactive)
RXF 393
  GI50: > 100 µM (inactive)
SF-268
  GI50: > 100 µM (inactive)
SF-295
  GI50: > 100 µM (inactive)
SK-MEL-28
  GI50: > 100 µM (inactive)
SK-MEL-2
  GI50: > 100 µM (inactive)
SK-MEL-5
  GI50: > 100 µM (inactive)
SK-OV-3
  GI50: > 100 µM (inactive)
SN12C
  GI50: > 100 µM (inactive)
SNB-19
  GI50: > 100 µM (inactive)
SNB-75
  GI50: > 100 µM (inactive)
SR
  GI50: > 100 µM (inactive)
SW-620
  GI50: > 100 µM (inactive)
T47D
  GI50: > 100 µM (inactive)
TK-10
  GI50: > 100 µM (inactive)
U-251
  GI50: > 100 µM (inactive)
UACC-257
  GI50: > 100 µM (inactive)
UACC-62
  GI50: > 100 µM (inactive)
UO-31
  GI50: > 100 µM (inactive)
